Assay results from ChEMBL document CHEMBL5725537, “Pyrazolo-pyrrolidin-4-one derivatives and their use in the treatment of disease” (2017).

How the values were obtained:
[1] = molecular target: Bromodomain-containing protein 3 (Homo sapiens, UniProt Q15059); experiment: (§1) TR-FRET In-Vitro Binding Assays for BRD2, BRD3, and BRD4: All assays were performed in 384 well microtiter plates. Each assay plate contained 8-point serial dilutions for 40 test compounds, plus 16 high- and 16 low controls. Liquid handling and incubation steps were done on an Innovadyne Nanodrop Express equipped with a robotic arm (Thermo CatX, Perkin Elmer/Caliper Twister II) and an incubator (Liconic STX40, Thermo Cytomat 2C450). The assay plates were prepared by addition of 50 nl per well of compound solution in 90% DMSO HummingBird nanodispenser (Zinsser Analytic). The assay was started by stepwise addition of 4.5 μl per well of bromo domain protein (50 mM HEPES, pH 7.5, 0.005% Tween20, 0.1% BSA, 50 mM NaCl, 45 nM His-Brd2(60-472) or 45 nM His-Brd3(20-477) or 45 nM His-Brd4(44-477) all proteins produced in-house) and 4.5 μl per well of peptide solution (50 mM HEPES, pH 7.5, 0.005% Tween20, 0.1% BSA, 50 mM NaCl, 60 nM acetyl-histone H4 (AcK 5, 8, 12, 16) (Biosyntan GmbH)). Reactions were incubated at 30° C. for 35 minutes. Subsequently 4.5 μl per well detection mix (50 mM HEPES, pH 7.5, 0.005% Tween20, 0.1% BSA, 50 mM NaCl, 3 nM Eu-labeled anti-His6 antibody, 21 nM streptavidin-allophycocyanin) were added. After 35 minutes incubation at 30° C., plates were measured in a Perkin Elmer EnVision multilabel reader. Concentrations causing 50% inhibition (1050) values were determined from percent inhibition values at different compound concentrations by non-linear regression analysis.
[2] = molecular target: Bromodomain-containing protein 4 (Homo sapiens, UniProt O60885); experiment: as §1
CREB-binding protein = CREB-binding protein (Homo sapiens, UniProt Q92793); experiment: AlphaScreen In-Vitro Binding Assay for CREBBP: In order to assess bromodomain selectivity, we set up a binding assay using the bromodomain encoded by the CREBBP gene. […] Reactions were incubated at 30° C. for 35 minutes. Subsequently 4.5 μl per well detection mix (50 mM HEPES, pH 7.5, 0.005% Tween20, 0.02% BSA, 150 mM NaCl, 45 μg/ml Ni-chelate acceptor beads, 45 μg/ml streptavidin-donor beads) (Perkin Elmer)) were added. After 60 minutes incubation at room temperature, plates were measured in a Perkin Elmer EnVision multilabel reader. IC50 values were determined from percent inhibition values at different compound concentrations by non-linear regression analysis.
[3] = molecular target: Bromodomain-containing protein 2 (Homo sapiens, UniProt P25440); experiment: as §1
Chain of Bromodomain-containing protein 2 (P25440 whole entry): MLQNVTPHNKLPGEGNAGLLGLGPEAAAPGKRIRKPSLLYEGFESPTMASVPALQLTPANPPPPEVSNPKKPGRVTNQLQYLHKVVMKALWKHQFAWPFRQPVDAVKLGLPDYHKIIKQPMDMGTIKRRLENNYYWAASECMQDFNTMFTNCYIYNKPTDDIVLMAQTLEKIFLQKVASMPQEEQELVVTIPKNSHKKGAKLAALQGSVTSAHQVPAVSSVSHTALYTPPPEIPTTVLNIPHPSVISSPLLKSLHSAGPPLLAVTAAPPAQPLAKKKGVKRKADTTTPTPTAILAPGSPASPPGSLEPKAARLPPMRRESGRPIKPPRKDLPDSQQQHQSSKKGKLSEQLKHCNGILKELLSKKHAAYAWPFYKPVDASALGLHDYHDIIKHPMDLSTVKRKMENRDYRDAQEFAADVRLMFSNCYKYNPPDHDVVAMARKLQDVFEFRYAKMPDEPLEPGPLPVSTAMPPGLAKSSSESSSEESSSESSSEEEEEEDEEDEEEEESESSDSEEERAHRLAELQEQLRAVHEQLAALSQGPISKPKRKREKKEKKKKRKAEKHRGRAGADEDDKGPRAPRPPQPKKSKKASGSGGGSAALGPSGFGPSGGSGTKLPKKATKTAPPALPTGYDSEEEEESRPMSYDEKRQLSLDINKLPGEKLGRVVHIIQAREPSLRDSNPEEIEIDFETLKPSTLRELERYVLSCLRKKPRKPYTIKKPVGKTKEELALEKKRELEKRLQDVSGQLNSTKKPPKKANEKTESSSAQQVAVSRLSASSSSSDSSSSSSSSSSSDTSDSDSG

Chain of CREB-binding protein (Q92793 whole entry): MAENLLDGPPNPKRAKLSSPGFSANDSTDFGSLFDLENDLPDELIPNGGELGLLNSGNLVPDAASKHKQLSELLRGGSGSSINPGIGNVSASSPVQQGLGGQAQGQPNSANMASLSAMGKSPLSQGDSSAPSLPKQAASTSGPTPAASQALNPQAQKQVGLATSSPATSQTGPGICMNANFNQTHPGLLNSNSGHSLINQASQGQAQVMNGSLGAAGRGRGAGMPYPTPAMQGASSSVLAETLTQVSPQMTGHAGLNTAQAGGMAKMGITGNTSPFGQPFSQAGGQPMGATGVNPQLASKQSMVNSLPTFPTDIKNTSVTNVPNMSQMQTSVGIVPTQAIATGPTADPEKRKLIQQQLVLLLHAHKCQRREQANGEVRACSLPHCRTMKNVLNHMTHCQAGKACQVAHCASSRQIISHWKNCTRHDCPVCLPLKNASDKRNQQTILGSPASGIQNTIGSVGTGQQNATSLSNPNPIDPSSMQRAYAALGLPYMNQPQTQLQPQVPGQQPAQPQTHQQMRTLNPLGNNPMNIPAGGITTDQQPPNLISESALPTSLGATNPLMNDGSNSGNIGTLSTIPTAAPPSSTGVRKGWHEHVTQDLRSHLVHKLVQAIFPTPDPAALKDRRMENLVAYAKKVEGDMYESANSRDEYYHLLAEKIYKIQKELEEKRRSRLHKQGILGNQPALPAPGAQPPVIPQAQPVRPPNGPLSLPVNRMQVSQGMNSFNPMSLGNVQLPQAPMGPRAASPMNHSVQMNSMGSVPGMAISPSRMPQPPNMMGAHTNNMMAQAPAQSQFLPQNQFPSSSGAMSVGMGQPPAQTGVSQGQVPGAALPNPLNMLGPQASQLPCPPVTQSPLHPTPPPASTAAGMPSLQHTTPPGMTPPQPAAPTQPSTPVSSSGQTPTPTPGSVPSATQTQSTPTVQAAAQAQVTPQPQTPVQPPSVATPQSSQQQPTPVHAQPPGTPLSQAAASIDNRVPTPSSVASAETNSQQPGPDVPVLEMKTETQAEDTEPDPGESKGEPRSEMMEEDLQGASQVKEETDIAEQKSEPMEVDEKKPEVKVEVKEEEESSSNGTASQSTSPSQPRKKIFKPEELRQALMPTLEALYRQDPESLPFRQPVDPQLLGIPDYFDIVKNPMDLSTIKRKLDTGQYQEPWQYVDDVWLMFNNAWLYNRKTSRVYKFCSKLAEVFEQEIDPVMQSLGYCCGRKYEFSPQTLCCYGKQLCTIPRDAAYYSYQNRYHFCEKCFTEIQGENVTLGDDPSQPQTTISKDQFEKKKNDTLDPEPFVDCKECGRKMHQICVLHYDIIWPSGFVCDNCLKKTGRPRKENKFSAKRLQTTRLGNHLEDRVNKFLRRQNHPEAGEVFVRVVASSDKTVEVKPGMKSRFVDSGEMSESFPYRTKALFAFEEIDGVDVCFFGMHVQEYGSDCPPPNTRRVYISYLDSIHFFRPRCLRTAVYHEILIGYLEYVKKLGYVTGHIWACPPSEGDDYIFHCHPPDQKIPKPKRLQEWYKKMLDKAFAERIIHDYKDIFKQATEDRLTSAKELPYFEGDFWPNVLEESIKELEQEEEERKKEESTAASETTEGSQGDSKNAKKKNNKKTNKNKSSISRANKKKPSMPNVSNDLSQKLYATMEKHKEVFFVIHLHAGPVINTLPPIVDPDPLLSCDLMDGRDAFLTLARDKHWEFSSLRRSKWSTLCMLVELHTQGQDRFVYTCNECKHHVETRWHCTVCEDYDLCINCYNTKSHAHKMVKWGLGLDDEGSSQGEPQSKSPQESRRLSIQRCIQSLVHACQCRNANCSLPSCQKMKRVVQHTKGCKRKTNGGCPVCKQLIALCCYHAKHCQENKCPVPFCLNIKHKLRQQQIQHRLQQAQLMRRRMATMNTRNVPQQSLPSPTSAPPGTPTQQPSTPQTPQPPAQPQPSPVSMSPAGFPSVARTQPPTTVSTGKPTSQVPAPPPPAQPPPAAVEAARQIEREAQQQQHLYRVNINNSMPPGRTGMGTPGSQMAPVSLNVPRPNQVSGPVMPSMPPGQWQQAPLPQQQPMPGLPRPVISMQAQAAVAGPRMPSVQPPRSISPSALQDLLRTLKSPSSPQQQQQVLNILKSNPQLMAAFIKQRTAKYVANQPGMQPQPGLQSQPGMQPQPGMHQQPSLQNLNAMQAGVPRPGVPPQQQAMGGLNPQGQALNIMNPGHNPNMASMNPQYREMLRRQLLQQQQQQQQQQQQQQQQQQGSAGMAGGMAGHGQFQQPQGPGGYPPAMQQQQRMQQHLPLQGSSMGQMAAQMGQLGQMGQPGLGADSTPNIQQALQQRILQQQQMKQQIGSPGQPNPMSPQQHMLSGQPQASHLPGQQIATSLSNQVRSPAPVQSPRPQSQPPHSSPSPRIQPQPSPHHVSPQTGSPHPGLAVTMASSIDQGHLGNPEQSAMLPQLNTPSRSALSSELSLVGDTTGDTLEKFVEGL
Chain of Bromodomain-containing protein 3 (Q15059 whole entry, the tested form may be a part): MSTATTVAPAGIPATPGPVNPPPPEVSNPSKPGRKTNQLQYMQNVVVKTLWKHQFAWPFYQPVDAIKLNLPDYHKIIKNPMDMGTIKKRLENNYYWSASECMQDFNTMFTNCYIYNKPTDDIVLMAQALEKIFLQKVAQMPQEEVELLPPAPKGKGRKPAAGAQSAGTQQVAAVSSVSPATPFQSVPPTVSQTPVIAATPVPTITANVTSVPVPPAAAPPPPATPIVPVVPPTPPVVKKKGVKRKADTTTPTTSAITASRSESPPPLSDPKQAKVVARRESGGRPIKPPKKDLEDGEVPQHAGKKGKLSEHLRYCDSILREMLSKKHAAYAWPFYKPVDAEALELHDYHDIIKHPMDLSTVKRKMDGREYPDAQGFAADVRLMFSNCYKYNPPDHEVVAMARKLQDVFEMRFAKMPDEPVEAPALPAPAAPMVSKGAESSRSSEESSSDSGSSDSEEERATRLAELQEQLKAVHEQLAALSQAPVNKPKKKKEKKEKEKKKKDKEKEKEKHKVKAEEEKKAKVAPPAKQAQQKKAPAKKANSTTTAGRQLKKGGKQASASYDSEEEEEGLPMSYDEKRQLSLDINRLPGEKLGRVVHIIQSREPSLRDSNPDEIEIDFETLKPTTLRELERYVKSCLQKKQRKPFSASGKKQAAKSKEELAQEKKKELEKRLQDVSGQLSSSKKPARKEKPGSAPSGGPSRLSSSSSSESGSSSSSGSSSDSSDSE

In the case of `CCOc1ncccc1-n1nc(C)c2c1C(c1ccc(Cl)cc1)N(c1cc(C)c(=O)n(C)c1)C2=O` (stereo unspecified), the IC50 [1] is reported as 62 nM, the IC50 [2] is reported as 79 nM and the IC50 (CREB-binding protein) is reported as 3100 nM.
In the case of `COc1ncccc1-n1nc(C)c2c1C(c1ccc(Cl)cc1)N(c1cc(C)c(=O)n(C)c1)C2=O` (stereo unspecified), the IC50 [2] is reported as 86 nM, the IC50 [3] is reported as 78 nM and the IC50 (CREB-binding protein) is reported as 4000 nM.
